Source: patent US20130059787A1, “METHODS OF USING HUMAN PROTEIN KINASE C DELTA VIII AS A BIOMARKER” (UNITED STATES DEPARTMENT OF VETERAN AFFAIRS, priority 2010, published 2013)

Tests used:
ischemic stroke = settings: RA injections immediately and following ischemia; cited from earlier work
PKCδ promoter = assay: pGlow-PKCδ promoter reporter transfected into NT2 cells; format: cell-based, human; settings: RA treatment
Description: Computational analysis of PKCδ promoter indicated putative RAREs. pGlow-PKCδ promoter (gift from Dr. Stuart H. Yuspa, NCI) was transfected into NT2 cells to determine if RA regulates transcription of the PKCδ gene via RARE on the PKCδ promoter region. […] This was verified by western blot analysis using GFP antibody to confirm up-regulation of PKCδ promoter by ATRA treatment.

PKCδVIII mRNA = settings: RA about 24 h; Jiang et al. 2008; cited from earlier work
PKCδVIII = assay: RT-PCR with human PKCδ primers in primary neuronal cells from hippocampus; format: cell-based; settings: RA about 24 h
Experimental: FIG. 2 is a series of images indicating the expression of PKCδVIII. (a) an image showing that both PKCδI and PKCδVIII were detected and the levels of PKCδVIII increased with retinoic acid treatment. Primary neuronal cells from hippocampus were treated with RA for about 24 h. Total RNA was extracted and RT-PCR performed with primers described in FIG. 1 which detect both PKCδI and PKCδVIII simultaneously. (b) an image showing that the expression of PKCδVIII is tissue-specific with the highest levels seen in the fetal brain. Human fetal tissue specific cdNAs were used in PCR analysis using PKCδVIII-specific primers. (i) Liver (ii) kidney (iii) heart (iv) spleen (v) brain. About five percent products were separated on PAGE and detected by silver nitrate staining […]
Using PKCδ primers, PKCδI and PKCδVIII are detected simultaneously: PKCδI is 368 bp and PKCδVIII is 461 bp. […] About 5% of products were resolved on 6% PAGE gels and detected by silver staining. The PCR reaction was optimized for linear range amplification to allow for quantification of products. […]
The inventors looked for the expression of PKCδ isozymes in primary neuronal cells to verify the expression pattern of PKCδVIII. […] PKCδI and PKCδVIII isoforms were detected and the levels of PKCδVIII increased with retinoic acid treatment (FIG. 2a). PKCδVIII was not detected in aorta smooth muscle cells or skeletal muscle cells (data not shown). […]

CC1=C(/C=C/C(C)=C/C=C/C(C)=C/C(=O)O)C(C)(C)CCC1 [RA, all-trans-retinoic acid]
infarct volume (ischemic stroke): reduced
fluorescence of pGlow-PKCδ promoter compared to control samples (PKCδ promoter): four-fold increase
expression of PKCδVIII in NT2 cells (PKCδVIII mRNA): significantly increases
levels of PKCδVIII (RT-PCR) (PKCδVIII): increased
